In patent US20220411388A1, “SUBSTITUTED IMIDAZOLE CARBOXAMIDES AND THEIR USE IN THE TREATMENT OF MEDICAL DISORDERS” (Bial - R&D Investments, S.A., priority 2019, published 2022) one finds solubility and IC50 data, which are given here for 37 molecules.

In brackets after ≈: the same amount, converted by molar mass.

The nature of data set [1]: Compound solubility in water. It counts as physicochemical.
For another data set, the target named is T1, acid ceramidase (hACR) (Homo sapiens, UniProt Q13510).
T1 construct: expressed in transfected cells
T1 sequence (Q13510 22-395): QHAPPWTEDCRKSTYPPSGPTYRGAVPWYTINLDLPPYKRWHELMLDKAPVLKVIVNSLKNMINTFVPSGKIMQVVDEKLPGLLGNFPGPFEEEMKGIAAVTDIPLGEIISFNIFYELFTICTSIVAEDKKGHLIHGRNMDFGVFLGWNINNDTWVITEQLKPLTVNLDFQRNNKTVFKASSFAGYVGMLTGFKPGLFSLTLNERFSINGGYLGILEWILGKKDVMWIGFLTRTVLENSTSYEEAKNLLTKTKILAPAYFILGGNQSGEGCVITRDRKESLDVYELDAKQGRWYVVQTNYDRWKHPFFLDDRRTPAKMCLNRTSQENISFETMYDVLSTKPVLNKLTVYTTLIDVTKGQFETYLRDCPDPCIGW
Description: Acid ceramidase inhibition, biochemical fluorescent assay with cell lysates overexpressing acid ceramidase (substrate Rbm14-12). The conditions noted are these: cell lysate, 1 hr preincubation at RT, pH 4.5, Rbm14-12 6.3 μM; read-out: IC50 hACR. The method in brief: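 Enzyme source was lysate from cells overexpressing acid ceramidase, 10 µg protein per reaction. Compounds were preincubated 1 h at RT in 25 mM NaAc, 100 mM NaCl, pH 4.5.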

In data set [1], `COc1ccc(-c2cn(C(=O)NCCC3(C(F)(F)F)CC3)c(OC)n2)cn1` [Example 94, 2-Methoxy-4-(6-methoxypyridin-3-yl)-N-(2-(1-(trifluoromethyl)cyclopropyl)ethyl)-1H-imidazole-1-carboxamide] showed a solubility of 6 µg/mL (≈ 15.6 µM). For the same molecule, the IC50 at acid ceramidase (hACR) is 200 to 1000 nM.

`COc1nccn1C(=O)NCCC(C)C` [Example 78, N-iso-pentyl-2-methoxy-1H-imidazole-1-carboxamide] yielded a solubility in data set [1] of 28 µg/mL (≈ 133 µM). The half-maximal inhibitory concentration (IC50) at acid ceramidase (hACR) fell in the range of 200 to 1000 nM.

As for `COc1nc(C(C)(C)C#N)cn1C(=O)NCCC(C)C` [Example 81, 4-(2-Cyanopropan-2-yl)-N-iso-pentyl-2-methoxy-1H-imidazole-1-carboxamide], the concentration in solution in data set [1] (solubility) was 23 µg/mL (≈ 82.6 µM). The 50% inhibitory concentration (IC50) at acid ceramidase (hACR) was over 1000 nM.

`COc1nc(-c2ccccc2)cn1C(=O)NC1CC1` [Example 140, N-Cyclopropyl-2-methoxy-4-phenyl-1H-imidazole-1-carboxamide] had a solubility in data set [1] of 27 µg/mL (≈ 105 µM). Further, the half-maximal inhibitory concentration (IC50) at acid ceramidase (hACR) is over 1000 nM.

Regarding `CN(C)Cc1cncc(-c2cn(C(=O)NCCc3ccccc3)cn2)c1` [Example 44, 4-(5-((Dimethylamino)methyl)pyridin-3-yl)-N-phenethyl-1H-imidazole-1-carboxamide], the solubility in data set [1] turned out to be 30.8 µg/mL (≈ 88.1 µM). In addition, the IC50 on acid ceramidase (hACR) lay within 200 to 1000 nM.

`COc1nc(C)cn1C(=O)NCCCn1ccc(C(C)(C)C)n1` [Example 179, N-(3-(3-(tert-Butyl)-1H-pyrazol-1-yl)propyl)-2-methoxy-4-methyl-1H-imidazole-1-carboxamide]: the concentration in solution in data set [1] (solubility) was 22 µg/mL (≈ 68.9 µM). Also, at acid ceramidase (hACR), the 50% inhibitory concentration (IC50) was under 200 nM.

As to `COc1nc(C2(C)CCOCC2)cn1C(=O)NCCC1CC1` [Example 104, N-(2-Cyclopropylethyl)-2-methoxy-4-(4-methyltetrahydro-2H-pyran-4-yl)-1H-imidazole-1-carboxamide], the solubility in data set [1] stood at 28 µg/mL (≈ 91.1 µM). Further, the IC50 at acid ceramidase (hACR) lay within 200 to 1000 nM.

Regarding `O=C(NCCC1CCCC1(F)F)n1cc(Cl)nc1OCCN1CCOCC1` (centres unmarked) [Example 191, 4-Chloro-N-(2-(2,2-difluorocyclopentyl)ethyl)-2-(2-morpholinoethoxy)-1H-imidazole-1-carboxamide], in data set [1], the solubility was 33 µg/mL (≈ 81.1 µM). In addition, the IC50 on acid ceramidase (hACR) is 200 to 1000 nM.

Consider `CC(C)(C)c1cn(C(=O)NCCOc2ccccc2)cn1` [Example 19, 4-tert-Butyl-N-(2-phenoxyethyl)-1H-imidazole-1-carboxamide], for which the concentration in solution in data set [1] (solubility) came to 0.8 µg/mL (≈ 2.78 µM). The half-maximal inhibitory concentration (IC50) at acid ceramidase (hACR) was under 200 nM.

For the molecule `O=C(NCc1ccccc1)n1cnc(-c2cccnc2)c1` [Example 42], the concentration in solution in data set [1] (solubility) was 13.6 µg/mL (≈ 48.9 µM). Besides, the 50% inhibitory concentration (IC50) on acid ceramidase (hACR) lay within 200 to 1000 nM.

On to `Cc1cn(C(=O)NC2CC2)c(OC2CCC(F)(F)CC2)n1` [Example 183, N-Cyclopropyl-2-(4,4-difluorocyclohexyloxy)-4-methyl-1H-imidazole-1-carboxamide], for which the solubility in data set [1] amounted to 31 µg/mL (≈ 104 µM). The IC50 at acid ceramidase (hACR) is 200 to 1000 nM.

Consider `COc1nc(Cl)cn1C(=O)NCCCC(F)(F)F` [Example 168, 4-Chloro-2-methoxy-N-(4,4,4-trifluorobutyl)-1H-imidazole-1-carboxamide], for which the solubility in data set [1] was 34 µg/mL (≈ 119 µM). Further, the IC50 at acid ceramidase (hACR) is under 200 nM.

In data set [1], `COc1nc(C2CC2)cn1C(=O)NCCC(C)C` [Example 127, 4-Cyclopropyl-N-iso-pentyl-2-methoxy-1H-imidazole-1-carboxamide] had a solubility of 23 µg/mL (≈ 91.5 µM). On acid ceramidase (hACR), the 50% inhibitory concentration (IC50) was over 1000 nM.

In data set [1], `COc1ccc(-c2cn(C(=O)NCCC(C)C)cn2)cn1` [Example 36, N-iso-Pentyl-4-(6-methoxypyridin-3-yl)-1H-imidazole-1-carboxamide] came in with a solubility of 2.9 µg/mL (≈ 10.1 µM). Further, at acid ceramidase (hACR), the IC50 was 200 to 1000 nM.

Molecule `O=C(NCCCc1ccccc1)n1cnc(-c2cccnc2)c1` [Example 14, N-(3-Phenylpropyl)-4-(pyridin-3-yl)-1H-imidazole-1-carboxamide] gave a solubility in data set [1] of 14.3 µg/mL (≈ 46.7 µM). Moreover, the IC50 at acid ceramidase (hACR) is under 200 nM.

As for `COc1nc(C2CCCCC2)cn1C(=O)NCCC(C)C` [Example 109, 4-Cyclohexyl-N-iso-pentyl-2-methoxy-1H-imidazole-1-carboxamide], in data set [1], the concentration in solution (solubility) was 13 µg/mL (≈ 44.3 µM). Besides, the IC50 at acid ceramidase (hACR) was in the range of 200 to 1000 nM.

In data set [1], `COc1nc(C2CCCC2)cn1C(=O)NCCC(C)C` [Example 75, 4-Cyclopentyl-N-iso-pentyl-2-methoxy-1H-imidazole-1-carboxamide] yielded a solubility of 13 µg/mL (≈ 46.5 µM). In addition, on acid ceramidase (hACR), the IC50 is 200 to 1000 nM.

`CCC(C)CNC(=O)n1cnc(-c2cccnc2)c1` (centres unmarked) [Example 60, N-(2-Methylbutyl)-4-(pyridin-3-yl)-1H-imidazole-1-carboxamide]: the concentration in solution in data set [1] (solubility) came to 25.6 µg/mL (≈ 99.1 µM). Moreover, the IC50 at acid ceramidase (hACR) is 200 to 1000 nM.

With `COc1nc(-c2ccccc2)cn1C(=O)NCCCc1ccccc1` [Example 12, 2-Methoxy-4-phenyl-N-(3-phenylpropyl)-1H-imidazole-1-carboxamide], in data set [1], the solubility was found to be 1 µg/mL (≈ 2.98 µM). In addition, at acid ceramidase (hACR), the concentration for half-maximal inhibition (IC50) lay in the range of 200 to 1000 nM.

Molecule `Cc1cn(C(=O)NCCc2ccccc2)c(OCCN2CCN(C)CC2)n1` [Example 190, 4-Methyl-2-(2-(4-methylpiperazin-1-yl)ethoxy)-N-phenethyl-1H-imidazole-1-carboxamide] returned a solubility in data set [1] of 39 µg/mL (≈ 105 µM). In addition, the IC50 on acid ceramidase (hACR) is under 200 nM.

In data set [1], `Cc1cn(C(=O)NCC#Cc2ccccc2)c(OCCN2CCOCC2)n1` [Example 196, 4-Methyl-2-(2-morpholinoethoxy)-N-(3-phenylprop-2-yn-1-yl)-1H-imidazole-1-carboxamide] registered a solubility of 31 µg/mL (≈ 84.1 µM). Moreover, at acid ceramidase (hACR), the IC50 is under 200 nM.

As to `COc1nc(C(C)(C)C)cn1C(=O)NC1CCCC(F)(F)C1` (centres unmarked) [Example 99, 4-(tert-Butyl)-N-(3,3-difluorocyclohexyl)-2-methoxy-1H-imidazole-1-carboxamide], the solubility in data set [1] was determined as 14 µg/mL (≈ 44.4 µM). On acid ceramidase (hACR), the IC50 was over 1000 nM.

The molecule `CC(C)(C)c1cn(C(=O)NCCc2ccccc2)cn1` [Example 3, 4-tert-Butyl-N-phenethyl-1H-imidazole-1-carboxamide] gave a solubility in data set [1] of 5.2 µg/mL (≈ 19.2 µM). In addition, at acid ceramidase (hACR), the IC50 is under 200 nM.

Regarding `COc1nc(C)cn1C(=O)NCCCCc1ccccc1` [Example 156, 2-Methoxy-4-methyl-N-(4-phenylbutyl)-1H-imidazole-1-carboxamide], the solubility in data set [1] was 23 µg/mL (≈ 80 µM). Further, the concentration for half-maximal inhibition (IC50) on acid ceramidase (hACR) was under 200 nM.

In data set [1], `COc1nc(C(C)C)cn1C(=O)NCCC(C)C` [Example 76] registered a solubility of 20 µg/mL (≈ 78.9 µM). Moreover, the IC50 on acid ceramidase (hACR) was in the range of 200 to 1000 nM.

As to `CC(C)CCNC(=O)n1cc(C(C)(C)C)nc1Oc1ccccc1F` [Example 115, 4-tert-Butyl-2-(2-fluorophenoxy)-N-iso-pentyl-1H-imidazole-1-carboxamide], in data set [1], the solubility turned out to be 0.4 µg/mL (≈ 1.15 µM). On acid ceramidase (hACR), the IC50 is 200 to 1000 nM.

The molecule `CCOc1nccn1C(=O)NCCC(C)C` [Example 121, 2-Ethoxy-N-iso-pentyl-1H-imidazole-1-carboxamide] displayed a solubility in data set [1] of 23 µg/mL (≈ 102 µM). Moreover, at acid ceramidase (hACR), the IC50 was 200 to 1000 nM.

`Cc1cnc(OC(C)C)n1C(=O)NCCc1ccccc1` [Example 150, 2-iso-Propoxy-5-methyl-N-phenethyl-1H-imidazole-1-carboxamide] yielded a solubility in data set [1] of 5 µg/mL (≈ 17.4 µM). For the same molecule, the IC50 at acid ceramidase (hACR) is under 200 nM.

For `CC(C)c1ccc(-c2cn(C(=O)NCCc3ccccc3)cn2)cn1` [Example 43, 4-(6-iso-Propylpyridin-3-yl)-N-phenethyl-1H-imidazole-1-carboxamide], the concentration in solution in data set [1] (solubility) was 0.8 µg/mL (≈ 2.39 µM). The IC50 at acid ceramidase (hACR) was under 200 nM.

In turn, `CC(C)(CNC(=O)n1cnc(-c2cccnc2)c1)c1ccccc1` [Example 13, N-(2-Methyl-2-phenylpropyl)-4-(pyridin-3-yl)-1H-imidazole-1-carboxamide] showed a solubility in data set [1] of 1.9 µg/mL (≈ 5.93 µM). For the same molecule, on acid ceramidase (hACR), the half-maximal inhibitory concentration (IC50) is under 200 nM.

The molecule `O=C(NCCC1CC1)n1cnc(-c2ccns2)c1` [Example 72, N-(2-Cyclopropylethyl)-4-(iso-thiazol-5-yl)-1H-imidazole-1-carboxamide] yielded a solubility in data set [1] of 22 µg/mL (≈ 83.9 µM). For the same molecule, the concentration for half-maximal inhibition (IC50) at acid ceramidase (hACR) was in the range of 200 to 1000 nM.

`COc1nc(C(C)(C)C)cn1C(=O)NCCCC1(C(F)(F)F)CC1` [Example 96, 4-(tert-Butyl)-2-methoxy-N-(3-(1-(trifluoromethyl)cyclopropyl)propyl)-1H-imidazole-1-carboxamide]: the concentration in solution in data set [1] (solubility) was 12 µg/mL (≈ 34.5 µM). For the same molecule, on acid ceramidase (hACR), the 50% inhibitory concentration (IC50) was under 200 nM.

In turn, `CN1CCC(c2cn(C(=O)NCCC#Cc3ccccc3)cn2)CC1` [Example 204, 4-(1-Methylpiperidin-4-yl)-N-(4-phenylbut-3-yn-1-yl)-1H-imidazole-1-carboxamide] returned a solubility in data set [1] of 31 µg/mL (≈ 92.1 µM). Moreover, at acid ceramidase (hACR), the half-maximal inhibitory concentration (IC50) was under 200 nM.

`COc1nc(C(C)(C)C)cn1C(=O)NCC(C)C` [Example 86, 4-(tert-Butyl)-N-iso-butyl-2-methoxy-1H-imidazole-1-carboxamide] came in with a solubility in data set [1] of 15 µg/mL (≈ 59.2 µM). Further, the IC50 at acid ceramidase (hACR) lay within 200 to 1000 nM.

In data set [1], `COc1nccn1C(=O)NCCCc1ccccc1` [Example 124, 2-methoxy-N-(3-phenylpropyl)-1H-imidazole-1-carboxamide] registered a solubility of 20 µg/mL (≈ 77.1 µM). Also, at acid ceramidase (hACR), the concentration for half-maximal inhibition (IC50) is under 200 nM.

Regarding `COc1nccn1C(=O)NCCc1ccccc1` [Example 135, 2-Methoxy-N-phenethyl-1H-imidazole-1-carboxamide], the solubility in data set [1] came to 26 µg/mL (≈ 106 µM). Also, on acid ceramidase (hACR), the IC50 was under 200 nM.

With `COc1nccn1C(=O)NC1CCCCC1` [Example 120, N-Cyclohexyl-2-methoxy-1H-imidazole-1-carboxamide], the solubility in data set [1] turned out to be 14 µg/mL (≈ 62.7 µM). Further, on acid ceramidase (hACR), the IC50 is over 1000 nM.
